Results on eight compounds are retold here after US9649324B2, “Use of tylvalosin as antiviral agent” (ECO ANIMAL HEALTH LIMITED, priority 2006, dated 2017).

One data set has as its system HRT-18 cells. The experiment in a line: Intracellular accumulation of macrolides in HRT-18 cells. The conditions noted are these: for intracellular:extracellular ratio: human, 10 μg/mL. Type of data set: in vitro ADME, human. Here is the method: HRT-18 cells, in 6 cm tissue cultures dishes, were incubated in the presence of 0.5, 5 or 50 μg/mL tylvalosin. After 4 h, two dishes for each tylvalosin concentration and two dishes without antibiotic were removed from the incubator. A sample of medium (about 1 mL) was removed, placed in a labelled Eppendorf tube and stored at −20° C. The rest of the medium was then removed. Each of the cell monolayers was washed twice in PBS, using approximately 5 mL for each wash. The plunger from a 2 mL plastic syringe was used to gently scrape off the cells. PBS (500 μL) was added to the dish and the cells gently removed into this medium, using a micropipette. The sample was then placed in an Eppendorf tube and centrifuged at 8000×g in a bench centrifuge (Biofuge pico, Heraeus instruments) for 13 sec. An obvious cell pellet formed. The supernatant was removed using a micropipette and the cell material was stored at −20° C. in a labelled Eppendorf tube. After approximately 24 h the remaining tissue culture dishes were removed from the incubator and treated as described above for the 4 h samples. All the samples, including the 4 h samples, were then stored at −70° C.
HRT-18 cells were prepared as described above and used at passage 42. Stock solutions of antibiotics (either tylvalosin, tylosin or tilmicosin) were diluted in growth media and 10 μg/mL each antibiotic was added to the confluent cell monolayers. The cells were incubated at 37° C. in a 5% CO2 atmosphere for either 4 h or 24 h. The media and cells were harvested and tested for antibiotic, as described above.
(§1) All the supernatant and cell samples were transported frozen (at approximately −20° C.) to York Bioanalytical Solutions (York, England) for analysis. Briefly, 0.25 g of buffer (RPMI medium containing 10% FCS) was weighed into a polypropylene tube. A 50 μL volume of the appropriate working solution was added to the quality control (QC) samples. Methanol (50 μL) was added to each blank sample used for preparation of calibration standards, recovery samples and reagent blanks. A 2.5 mL volume of 0.1 M phosphate buffer was added to each sample, vortex mixed for approximately 1 min and then centrifuged at 3220×g for 10 min at 4° C.
(§2) For the liquid-liquid clean-up phase, an aliquot (100 μL) of the supernatant was transferred to a polypropylene tube. The pH was adjusted to pH 8-8.5 by the addition of 0.1 M NaOH, and vortex mixed. Ethyl acetate (5 mL) was added and after capping, the whole mixture was shaken for 10 min and then centrifuged at 3220×g for 10 min at 4° C.
(§3) Ammonium acetate (20 mM; pH native)—formic acid, 1000:3, v/v (100 μL) was added to each well in a 2 mL polypropylene collection plate. An aliquot of the ethyl acetate mixture (100 μL) was transferred to the polypropylene collection plate and evaporated under nitrogen (40° C.) until the ethyl acetate was fully evaporated whilst the ammonium acetate remained. Methanol (100 μL) was added to each well, excluding the calibration standards.
(§4) To each well containing a calibration standard, 100 μL of the appropriate calibration working solution was added. Samples were then vortex mixed for at least 10 min and submitted for liquid chromatography with tandem mass spectrometric analysis. The method stated was applicable to the samples of media (and the calibration standards and quality control samples).
(§5) For the cells, the sample tubes were weighed, and 100 μL of acetonitrile was added. The samples were vortex mixed for 10 sec, then centrifuged at 10285×g at 4° C. for 5 min. The sample was transferred to a polypropylene tube. The original sample tube was washed with 0.1 M phosphate buffer (1 mL). This was transferred to the polypropylene tube. A second wash of 1 mL was made, then a final wash of 0.5 mL. The polypropylene tube was now at the same stage as the end of the liquid extraction, but with the cells present rather than media. This was then taken through the sample preparation as described above. […]

For data set [1] the following is noted: in vivo; cited from earlier work.
The test system of data set [2] is PRRSV.
A further data set deals with EAV. The data set is described as follows: Sensitivity to chloroquine (Example 8), EAV.
The test system of data set [3] is PRRSV. The experiment in a line: Inhibitors of PRRSV infection added at various times pre and post infection (Example 7). Type of data set: cell-based. The following applies: for PRRSV spread / initial PRRSV infection (initial site of infection): added 2 or 4 hours after infection.
The test system of data set [4] is equine arteritis virus (EAV). The data set is described as follows: Effect on equine arteritis virus infection (Example 6). It counts as cell-based. Here is the method: Experiments were carried out to determine whether tylvalosin has an effect on equine arteritis virus (EAV).
The next data set deals with endosomal pH. The data set is described as follows: Acridine orange assay of endosomal pH (Example 13). It counts as cell-based. The following applies: acridine orange stained endosomes, any cell line. The procedure: Acridine orange is a dye that causes cells to fluoresce green with the exception of acidic compartments (such as endosomes) that appear red—due to the protonation of the dye and quenching of the green fluorescence. A substance that raises the endosomal pH will prevent the appearance of the red fluorescence. The effect of Aivlosin® and other macrolide antibiotics on a the staining of endosomes by acridine orange in number of cells lines was determined (see FIG. 19). An area of cells grown on a glass coverslip is first selected using a DAPI stain. […] This selection procedure helps reduce any bias in the results. The green and red filters on the epifluorescence microscope were then used to examine about 20 cells. The number of red spots (endosome vesicles) in was determined. The average number of Acridine orange stained endosomes was counted.

For a further data set, the system named is Caco-2 cells. The data set is described as follows: Intracellular accumulation and trans-epithelial transport in polarised Caco-2 cells. It counts as in vitro ADME, human. The conditions noted are these: human, Caco-2, 240 min, 10 μg/mL. The procedure: Caco-2 cells were seeded at a density of 0.8×10^6 cells per well of a Transwell Clear filter 6 well plate, 0.4 μm pore size. The cells were incubated with 2 mL medium in both apical and basolateral chambers. This medium was replaced every 2 days for 10-14 days. Transepithelial resistance was measured using Millicell ERS apparatus (Millipore) at day 7, 10 and/or 14 in order to identify when the cells had become polarised. Readings of >1000 Ω were indicative of polarised cells. […]
as §1, §2, §3, §4
(§6) For the cells, the sample tubes were weighed, and 100 μL of acetonitrile was added. The samples were vortex mixed for 10 sec, then centrifuged at 10285×g at 4° C. for 5 min. The sample was transferred to a polypropylene tube. The original sample tube was washed with 0.1 M phosphate buffer (1 mL). This was transferred to the polypropylene tube. A second wash of 1 mL was made, then a final wash of 0.5 mL. The polypropylene tube was now at the same stage as the end of the liquid extraction, but with the cells present rather than media. This was then taken through the sample preparation as described above. The original sample tubes were allowed to dry (i.e. any remaining solvent evaporated off) and were then reweighed to determine the weight of cells in the sample, to allow the concentration per gram of cells to be determined.
A general note: Passage across Caco-2 layers is used to estimate intestinal permeability.

Data set [5] deals with chicken white blood cells. The experiment in a line: Intracellular accumulation in chicken white blood cells. Type of data set: in vitro ADME. Also noted: intracellular:extracellular ratio, variation during the experimental time period: dose or concentration left out as unconfirmed. The conditions noted are these: chicken. Here is the method: Pig blood was collected in Heparin-coated BD vacutainers (6). 20 mL of blood and 30 mL of phosphate buffered saline (PBS) were mixed in a 50 mL conical centrifuge tube. This was repeated in order to obtain 3 such tubes. The mixtures were centrifuged for 10 min at 2050×g. The white blood cells, together with some red blood cells below, were harvested into a 50 mL conical centrifuge tube. PBS was added to about 50 mL. A 63% solution of Percoll was made as follows: 6.3 mL Percoll (Sigma), 1.0 mL 1.5 M NaCl, 2.7 mL H2O. 10 mL of 63% Percoll was added to each of two 50 mL conical centrifuge tubes. 25 mL of the resuspended white blood cells were carefully layered on top of the each of the Percoll solutions. A sharp interface was produced. The material was centrifuged at 3000×g for 10 min. […] The white blood cells were harvested in PBS (50 mL) and centrifuged at 500×g for 10 min. The cell pellet was resuspended in medium (Glasgow minimum essential medium containing penicillin and streptomycin). A viable cell count was made using trypan blue. The same method used for isolation of pig WBCs was used for the chicken WBCs, with the exception that heparin (100 I.U./mL) was prepared and mixed with an equal volume of chicken whole blood.
All tubes were placed on a rotary mixing machine, at 37° C. Supernatant and cell samples were harvested at the times described in the figure legends. Duplicate samples were used for each antibiotic for each time point.
as §1, §2, §3, §4, §5

Data set [6] deals with PRRSV. The experiment in a line: Effect of macrolides on PRRSV (background statement).
Another data set concerns LLC-PK1 cells. The data set is described as follows: Intracellular accumulation in pig kidney epithelial cells. Type of data set: in vitro ADME. The conditions noted are these: pig, 75 min, 10 μg/mL. The procedure:
LLC-PKI cells in 6 cm^2 plastic tissue culture dishes were incubated with 10 μg/mL of the different macrolides. Cells and medium were harvested as described above at 30, 75 and 120 min.
as §1, §2, §3, §4, §6

Data set [7] concerns VR2332 (US strain of PRRSV). The experiment in a line: VR2332 (US strain of PRRSV) entry assay in MA104 cells (Example 10). The conditions noted are these: 4 h pretreatment, moi 10, overnight.

Take `CC[C@H]1OC(=O)C[C@@H](OC(C)=O)[C@H](C)[C@@H](O[C@@H]2O[C@H](C)[C@@H](O[C@H]3C[C@@](C)(O)[C@@H](O)[C@H](C)O3)[C@H](N(C)C)[C@H]2O)[C@@H](CC=O)C[C@@H](C)C(=O)/C=C/C(C)=C/C1CO[C@@H]1O[C@H](C)[C@@H](O)[C@@H](OC)[C@H]1OC` (stereo partly drawn) [3-acetyltylosin, 3-O-Acetyltylosin]: the “uptake and accumulation in cells” value in the data set with HRT-18 cells is recorded as “behave in the same way”.

`CC[C@H]1OC(=O)[C@H](C)[C@@H](O[C@H]2C[C@@](C)(OC)[C@@H](O)[C@H](C)O2)[C@H](C)[C@@H](O[C@@H]2O[C@H](C)C[C@H](N(C)C)[C@H]2O)[C@](C)(O)C[C@@H](C)CN(C)[C@H](C)[C@@H](O)[C@]1(C)O` [azithromycin]: the “transintestinal elimination, share of the total administered dose” value in [1] was 30-35%.

As to `CCN(CC)CCCC(C)Nc1ccnc2cc(Cl)ccc12` (stereo not drawn) [chloroquine], the “concentration required to inhibit infection” value in the data set with PRRSV [2] was “less than 5 μM”; in the data set with EAV, at least 50 µM; in the data set on FCV, at least 200 µM. In addition, the PRRSV spread entry with PRRSV [3] is reported as “no effect”. Moreover, the “initial PRRSV infection (initial site of infection)” value in the data set on PRRSV [3] is reported as “no effect”. Further, the “initial PRRSV infection” value in the data set on PRRSV [3] (added 4 hours before infection) and in the data set with PRRSV [3] (added at the time of infection) was “inhibited” throughout.

As to `CN(C)CCCN1c2ccccc2Sc2ccc(Cl)cc21` [chlorpromazine], in the data set on PRRSV [3], the PRRSV spread entry is “appeared to prevent spread” and the “initial PRRSV infection (initial site of infection)” value is on record as “showed the initial site of infection”. In addition, the “initial PRRSV infection” value in the data set on PRRSV [3] (added 4 hours before infection) is reported as “inhibited”. The “initial PRRSV infection” value with PRRSV [3] (added at the time of infection) is “inhibited”.

Turning to `CC[C@H]1OC(=O)[C@H](C)[C@@H](O[C@H]2C[C@@](C)(OC)[C@@H](O)[C@H](C)O2)[C@H](C)[C@@H](O[C@@H]2O[C@H](C)C[C@H](N(C)C)[C@H]2O)[C@](C)(OC)C[C@@H](C)C(=O)[C@H](C)[C@@H](O)[C@]1(C)O` [clarithromycin], the “transintestinal elimination, share of the total administered dose” value in data set [1] is “about 10%”.

`C=C1[C@@H](C)[C@H]2[C@H](Cc3ccccc3)NC(=O)[C@]23[C@H](OC(C)=O)/C=C/[C@@](C)(O)C(=O)[C@@H](C)C/C=C/[C@H]3[C@@H]1O` [cytochalasin D]: in the data set with PRRSV [3], the PRRSV spread entry is on record as “no spread could be detected”. The “initial PRRSV infection (initial site of infection)” value in the data set on PRRSV [3] was “no effect”. The “initial PRRSV infection” value in the data set on PRRSV [3] (added 4 hours before infection) and in the data set on PRRSV [3] (added at the time of infection) was “inhibited” throughout.

For the compound `COC(=O)Nc1nc2ccc(C(=O)c3cccs3)cc2[nH]1` [nocodazole], in data set [4], the EAV infection entry is “not blocked”. In addition, the “initial PRRSV infection (initial site of infection)” value in the data set with PRRSV [3] is listed as “no effect”. Moreover, the entries for the “initial PRRSV infection” value with PRRSV [3] (added 4 hours before infection) and in the data set on PRRSV [3] (added at the time of infection) were “inhibited” and “did not inhibit”, respectively.

Regarding `CC[C@H]1OC(=O)C[C@@H](O)[C@H](C)[C@@H](O[C@@H]2O[C@H](C)[C@@H](O[C@H]3C[C@@](C)(O)[C@@H](O)[C@H](C)O3)[C@H](N(C)C)[C@H]2O)[C@@H](CC=O)C[C@@H](C)C(=O)/C=C/C(C)=C/[C@@H]1CO[C@@H]1O[C@H](C)[C@@H](O)[C@@H](OC)[C@H]1OC` [tylosin], the “effect on raising the pH in the endosomes” value in the data set with endosomal pH was “did not have much effect”. Also, the average intracellular concentration in the data set on Caco-2 cells was 1.86 μg/mg cells; in data set [5] (15 min, 10 μg/mL), 10.1 μg/mg cells; in the data set on LLC-PK1 cells it was 2.41 μg/mg cells. Also, the “basolateral chamber content as average % of the apical chamber value” with Caco-2 cells was found to be 0.52%. For the same compound, the “intracellular:extracellular ratio” value in the data set with HRT-18 cells (4 h) and in the data set with HRT-18 cells (24 h) was “less than 1 fold” throughout. Moreover, the “intracellular:extracellular ratio, variation during the experimental time period” value in data set [5] is listed as 2.65-4.7 fold. In data set [5] (60 min, 10 μg/mL), the intracellular concentration turned out to be 32.1 μg/mg cells. For the same compound, in the data set with PRRSV [6], the “effect on PRRSV” value is on record as “no effect”. The “inhibition of VR2332 infection” value in [7] was “not”.
